For orientation: IC50 means the point on the concentration scale where inhibition reaches its midpoint.

The target of test [1] is T1, DNA topoisomerase 1 (Homo sapiens, UniProt P11387).
T1 sequence (P11387 whole entry): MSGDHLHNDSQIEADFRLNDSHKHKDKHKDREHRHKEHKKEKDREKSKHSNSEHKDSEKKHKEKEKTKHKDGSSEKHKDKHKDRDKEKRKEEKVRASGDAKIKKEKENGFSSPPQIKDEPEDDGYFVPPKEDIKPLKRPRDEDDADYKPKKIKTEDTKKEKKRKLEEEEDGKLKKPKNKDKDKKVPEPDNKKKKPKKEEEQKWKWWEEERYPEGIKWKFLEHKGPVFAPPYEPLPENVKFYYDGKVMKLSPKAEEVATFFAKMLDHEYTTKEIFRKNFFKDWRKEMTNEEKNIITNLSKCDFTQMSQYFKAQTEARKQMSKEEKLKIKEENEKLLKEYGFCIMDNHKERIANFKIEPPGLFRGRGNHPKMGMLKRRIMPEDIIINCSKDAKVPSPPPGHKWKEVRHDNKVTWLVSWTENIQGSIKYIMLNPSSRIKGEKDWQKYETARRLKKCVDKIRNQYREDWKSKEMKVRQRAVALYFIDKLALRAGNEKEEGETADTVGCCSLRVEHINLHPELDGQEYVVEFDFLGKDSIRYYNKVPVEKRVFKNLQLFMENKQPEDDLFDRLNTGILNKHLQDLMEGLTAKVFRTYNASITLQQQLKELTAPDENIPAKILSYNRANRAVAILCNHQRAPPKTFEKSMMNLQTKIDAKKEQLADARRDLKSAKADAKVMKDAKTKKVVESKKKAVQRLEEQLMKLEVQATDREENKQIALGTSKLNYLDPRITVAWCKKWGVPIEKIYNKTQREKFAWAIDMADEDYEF
Nature of the test: Inhibition of human COLO201 cellular topoisomerase-1 mediated plasmid DNA cleavage by electrophoresis in presence of 14 units of enzyme.

Test [2] has as its target T1, DNA topoisomerase 1. Kind of test: Inhibition of human COLO201 cellular topoisomerase-1 mediated plasmid DNA cleavage by electrophoresis in presence of 70 units of enzyme.

`O=C(O)C[C@@H]1C(=O)O[C@H]2[C@@H]3OC(=O)c4cc(O)c(O)c(O)c4-c4c(cc(O)c(O)c4O)C(=O)OC[C@H]2O[C@@H](OC(=O)c2cc(O)c(O)c(O)c2)[C@@H]3OC(=O)c2cc(O)c(O)c3c2[C@H]1[C@H](O)C(=O)O3` [CHEBULAGIC ACID]: the IC50 on DNA topoisomerase 1 [1] worked out at 50 nM; at DNA topoisomerase 1 [2], 100 nM.

For `O=C(O[C@@H]1O[C@@H]2COC(=O)c3cc(O)c(O)c(O)c3-c3c(cc(O)c(O)c3O)C(=O)O[C@H]([C@H]1O)[C@@H]2O)c1cc(O)c(O)c(O)c1` [CORILAGIN], the IC50 on DNA topoisomerase 1 [2] was 40000 nM.
